This note sets out measurements from US20050084839A1, “Method for selecting oocytes by using a response to LPA stimulation” (Hitachi, Ltd., priority 2003, published 2005).

“And” between values parts separate entries of the source, which are not always exact repeats. Equal entries are not always repeated.

In the experiment the test system is LPAR expressed endogenously in Xenopus laevis oocytes. The experiment is described as follows: Current response of oocytes to LPA stimulation (two-electrode voltage clamp). Format: cell-based. The note with it: 1 nM LPA; for Response to LPA, Average: average of six cells, −60 mV; for Response to LPA (difference between current value before LPA stimulation and peak current value after): individual cells, membrane potential fixed to −60 mV. The text has this:
First, an ovary is extracted from a female Xenopus laevis by a conventional method, and oocytes are isolated from the ovary by an enzymic treatment or the like. Oocytes not suitable for experiments are removed by a microscopic observation of their appearances such as size, shape, color and pattern. From the remaining group of oocytes, several cells, preferably 3 to 10 cells, more preferably 4 to 7 cells, and most preferably 6 cells are extracted at random. The membrane potential of the extracted oocytes is fixed to a constant voltage, for example, […] to −40 mV or +20 mV to +60 mV, preferably −60 mV by a known method such as two-electrode voltage clamp method or patch clamp method (See, e.g., Shin pacchikuranpu jikkengijutuhou, ed. Okada Yasunobu, Yoshiokashoten, Joron Ion Chaneru, pp. 1-14). By fixing the membrane potential, it is possible to measure the ionic current passing through channels or transporters of electrically resistant nature.
To the oocyte after fixing to a certain potential was added about 1 pM to 10 μM, preferably 100 pM to 100 nM, and most preferably 10 nM of LPA, followed by measurement of current response of the oocyte. An average current response is determined for a group of oocytes measured where the current response to LPA stimulation is the difference between the peak current value before LPA addition and the peak current value after LPA addition, providing the response of GPCR for a group of oocytes containing a brood of oocytes. A group of oocytes having a response of GPCR higher than a certain desirable value or within a certain desirable range are selected. The oocytes belonging to the group of oocytes selected in this way originate from a mother, and therefore, each oocyte has genetically nearly equal response of GPCR and may be considered excellent in response of GPCR.
Ovaries were extracted from mother bodies A, B, and C, and their follicle cells were removed by a conventional method. The oocytes after removal of follicles were selected based on their appearances that seemed suitable for experiments, and groups of oocytes were saved separately for each mother body (batches A, B, and C). From each batch, six oocytes were extracted at random, respectively.
The membrane potential of each cell was fixed to −60 mV by the two-electrode voltage clamp method. Each cell was stimulated by 1 nM LPA, and then the current response was measured. The difference between the current value before LPA stimulation and the peak current value after LPA stimulation was determined for each cell and shown in Table 1. There were differences in the responses to LPA among the batches.

Lysophosphatidic acid [LPA]: the “Response to LPA, Average” value came out at 0.8 μA (Batch A oocytes), 2.0 μA (Batch B oocytes) and 0.2 μA (Batch C oocytes). Also, the “Response to LPA (difference between current value before LPA stimulation and peak current value after)” value is, setting by setting: (Batch A oocytes) 1.1 μA and 1.5 μA and 0.6 μA (2×) and 0.3 μA and 0.8 μA; (Batch B oocytes) 2.5 μA and 1.8 μA and 2.6 μA and 1.1 μA and 2.3 μA and 1.4 μA; (Batch C oocytes) 0.1 μA (2×) and 0.3 μA and 0.4 μA and 0.0 μA and 0.2 μA.
